The values that follow come from patent US11739122B2, “Glycopeptide antibiotic compounds, methods for producing the same, and uses thereof” (Academia Sinica, priority 2019, dated 2023).

Assay in all cases: MIC, broth microdilution
Background: Broth dilution looks for growth in wells or tubes with falling amounts of substance.

One test relates to E. faecalis ATCC 29302. The test is classed as cell-based. The settings on record: EF ATCC 29302. How it is done:
(§1) Determination of Minimal Inhibitory Concentration (MIC) for Vancomycin, Teicoplanin and Tei-Analogs Versus Selected Strains
(§2) MICs were determined by the broth microdilution method. Specifically, 12 Colonies of the test strain were picked up from 18-24 hour agar cultures and freshly inoculated into broth mediums until reaching the turbidity of a 0.5 McFarland standard. The broth culture was adjusted with broth medium to approximately 1×10^8 CFUmL^−1. […] The plates were incubated in 37° C. for 18-24 hours and monitored for the wells of the positive control, where cells grew, and the wells of the negative control, where wells should not grow. The MIC value was determined for the concentration of a test compound, at which there was no visible growth in the well.

The test system of the next test is A. baumannii ATCC 19606. The test is classed as cell-based, Acinetobacter baumannii. How it is done:
as §1, §2

A further test deals with MRSA ATCC 43300. The test is classed as cell-based, Staphylococcus aureus. The note with it: MRSA ATCC 43300. The method, then:
as §1, §2

The test system of another test is MRSA ATCC BAA-39. Format: cell-based, Staphylococcus aureus. The settings on record: MRSA ATCC BAA-39. The method, then: as §1, §2
In another test the test system is MRSA ATCC 700787 VRSA. The test is classed as cell-based, Staphylococcus aureus. The settings on record: MRSA ATCC 700787 VRSA. How it is done: as §1, §2
The next test has as its system MRSA ATCC BAA-38. The test is classed as cell-based, Staphylococcus aureus. The settings on record: MRSA ATCC BAA-38. How it is done: as §1, §2
Another test has as its system MRSA ATCC 700698 hVISA. Format: cell-based, Staphylococcus aureus. The settings on record: MRSA ATCC 700698 hVISA. How it is done: as §1, §2
The subject of another test is MRSA ATCC 700789 VRSA. The test is classed as cell-based, Staphylococcus aureus. The settings on record: MRSA ATCC 700789 VRSA. The method, then:
as §1, §2

A further test relates to MRSA ATCC BAA-44. Format: cell-based, Staphylococcus aureus. The note with it: MRSA ATCC BAA-44. How it is done:
as §1, §2

Another test deals with S. aureus ATCC 29213. Format: cell-based, Staphylococcus aureus. The note with it: SA ATCC 29213. How it is done:
as §1, §2

In the next test the test system is VRE ATCC 700425 (vanC). Format: cell-based, enterococci. The settings on record: VRE ATCC 700425 (vanC). The method, then: as §1, §2
For the next test, the system named is VRE ATCC 700221 (vanA). Format: cell-based, enterococci. The settings on record: VRE ATCC 700221 (vanA). How it is done: as §1, §2
Another test concerns VRE ATCC 700802 (vanB). The test is classed as cell-based, enterococci. The note with it: VRE ATCC 700802 (vanB). How it is done: as §1, §2

Structures are written as SMILES. Converted amounts (≈) assume the structure as drawn.

Usually MIC stands for the lowest concentration that inhibits growth of the organism. On to `CC(=O)N[C@H]1[C@H](O[C@@H]2c3ccc(c(Cl)c3)Oc3cc4cc(c3O)Oc3ccc(cc3Cl)C[C@H]3NC(=O)[C@H](N(C)C)c5ccc(O)c(c5)Oc5cc(O)cc(c5)[C@H](NC3=O)C(=O)N[C@H]4C(=O)N[C@H]3C(=O)N[C@@H]2C(=O)N[C@H](C(=O)O)c2cc(O)cc(O)c2-c2cc3ccc2O)O[C@H](CO)[C@@H](O)[C@@H]1O` [Compound 10, r1,Me2-6,GlcNAc Tei-pseudoaglycone], for which the MIC against E. faecalis ATCC 29302 was 2 µg/mL (≈ 1.4 µM); in the test with A. baumannii ATCC 19606 (A. baumannii ATCC 19606, Table 3, first figure of cell), above 200 µM; against A. baumannii ATCC 19606 (A. baumannii ATCC 19606, Table 3, second figure of cell), above 285.67 µg/mL; with MRSA ATCC 43300, 0.25 µg/mL (≈ 0.175 µM); in the test with MRSA ATCC BAA-39, 0.125 µg/mL (≈ 0.0874 µM); in the test on MRSA ATCC 700787 VRSA it was 0.5 µg/mL (≈ 0.35 µM). For the same compound, the MIC turned out to be 0.25 µg/mL (≈ 0.175 µM) against MRSA ATCC BAA-38; 1 µg/mL (≈ 0.699 µM) in the test with MRSA ATCC 700698 hVISA; 2 µg/mL (≈ 1.4 µM) against MRSA ATCC 700789 VRSA; 0.125 µg/mL (≈ 0.0874 µM) with MRSA ATCC BAA-44; 0.25 µg/mL (≈ 0.175 µM) against S. aureus ATCC 29213; 4 µg/mL (≈ 2.8 µM) against VRE ATCC 700425 (vanC). For the same compound, the MIC was above 128 µg/mL in the test with VRE ATCC 700221 (vanA) and 4 µg/mL (≈ 2.8 µM) against VRE ATCC 700802 (vanB).
In the case of `CCCCCCCC(=O)N[C@H]1[C@H](O[C@@H]2c3ccc(c(Cl)c3)Oc3cc4cc(c3O)Oc3ccc(cc3Cl)C[C@H]3NC(=O)[C@H](N(C)C)c5ccc(O)c(c5)Oc5cc(O)cc(c5)[C@H](NC3=O)C(=O)N[C@H]4C(=O)N[C@H]3C(=O)N[C@@H]2C(=O)N[C@H](C(=O)O)c2cc(O)cc(O)c2-c2cc3ccc2O)O[C@H](CO)[C@@H](O)[C@@H]1O` [Compound 20], the MIC with E. faecalis ATCC 29302 is 0.25 µg/mL (≈ 0.165 µM); with MRSA ATCC 43300 it was 0.063 µg/mL (≈ 0.0416 µM); in the test on MRSA ATCC BAA-39, 0.016 µg/mL (≈ 0.0106 µM); against MRSA ATCC 700787 VRSA it was 0.016 µg/mL (≈ 0.0106 µM); with MRSA ATCC BAA-38, 0.016 µg/mL (≈ 0.0106 µM); in the test on MRSA ATCC 700698 hVISA, 0.016 µg/mL (≈ 0.0106 µM). Moreover, the MIC in the test on MRSA ATCC 700789 VRSA is 0.5 µg/mL (≈ 0.33 µM); in the test with MRSA ATCC BAA-44 it was 0.016 µg/mL (≈ 0.0106 µM); against S. aureus ATCC 29213, 0.016 µg/mL (≈ 0.0106 µM); with VRE ATCC 700425 (vanC) it was 1 µg/mL (≈ 0.66 µM); with VRE ATCC 700221 (vanA), above 16 µg/mL; in the test with VRE ATCC 700802 (vanB), 0.5 µg/mL (≈ 0.33 µM).
Turning to `CCCCCCCC(=O)NC1C(OC2c3ccc(c(Cl)c3)Oc3cc4cc(c3O)Oc3ccc(cc3Cl)CC3NC(=O)C(N)c5ccc(O)c(c5)Oc5cc(O)cc(c5)C(NC3=O)C(=O)NC4C(=O)NC3C(=O)NC2C(=O)NC(C(=O)O)c2cc(O)cc(OC4OC(CO)C(O)C(O)C4O)c2-c2cc3ccc2O)OC(CO)C(O)C1O` (centres unmarked) [Compound 26], the MIC worked out at 0.5 µg/mL (≈ 0.303 µM) against E. faecalis ATCC 29302; 0.125 µg/mL (≈ 0.0758 µM) against MRSA ATCC 43300; 0.016 µg/mL (≈ 0.00971 µM) against MRSA ATCC BAA-39; 0.5 µg/mL (≈ 0.303 µM) in the test with MRSA ATCC 700787 VRSA; 0.125 µg/mL (≈ 0.0758 µM) in the test with MRSA ATCC BAA-38; 0.031 µg/mL (≈ 0.0188 µM) in the test with MRSA ATCC 700698 hVISA. Also, the MIC in the test with MRSA ATCC 700789 VRSA is 0.5 µg/mL (≈ 0.303 µM); against MRSA ATCC BAA-44, 0.016 µg/mL (≈ 0.00971 µM); against S. aureus ATCC 29213 it was 0.016 µg/mL (≈ 0.00971 µM); in the test on VRE ATCC 700425 (vanC) it was 1 µg/mL (≈ 0.607 µM); in the test with VRE ATCC 700221 (vanA), above 16 µg/mL; with VRE ATCC 700802 (vanB) it was 1 µg/mL (≈ 0.607 µM).
